In patent US6465442B2, “Topical application of muscarinic and opioid agents for treatment of tinnitus” (priority 1999, dated 2002):
Values joined by “and” are separate entries in the source; they are usually repeats but may differ in a detail not shown here. Equal entries are not always repeated.

How the values were obtained:
[1] = Otic solution administered by drops to the affected ear of patients complaining of tinnitus; type: in vivo, human; settings: every 4-6 hrs.
[2] = as above; type: in vivo, human
Experimental: A group of ten patients complaining of tinnitus were treated with an otic solution comprising about 500 μg/30 ml of neostigmine. One to two drops of the solution was administered to the affected ear about once every 4-6 hours. The patients reported relief within about 20 minutes after initial administration of the otic composition.

[3] = individual tinnitus patient, morphine 2 mg/30 cc otic solution
[4] = individual tinnitus patients, neostigmine 500 μg/30 cc otic solution, every 4-6 hrs.
[5] = individual tinnitus patients, stadol 1 mg/30 cc otic solution

CN1CC[C@]23c4c5ccc(O)c4O[C@H]2[C@@H](O)C=C[C@H]3[C@H]1C5 [morphine]
Results (improvement) [1, 3]: 60% | Side Effects [1, 3]: None

CN(C)C(=O)Oc1cccc([N+](C)(C)C)c1 [neostigmine]
relief of the tinnitus symptoms reported by patients ([2]; group of ten patients, about 500 μg/30 ml otic solution, one to two drops about once every 4-6 hours): significant relief | time to relief after initial administration of the otic composition ([2]; group of ten patients, about 500 μg/30 ml otic solution, one to two drops to affected ear): ≤ 20 min | Results (improvement) [2, 4]: 90% and 80% (4×) and 70% | Side Effects [2, 4]: None

Oc1ccc2c(c1)[C@@]13CCCC[C@@]1(O)[C@@H](C2)N(CC1CCC1)CC3 [stadol, butorphanol]
Results (improvement) [1, 5]: 60% and 80% (2×) | Side Effects [1, 5]: None
